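In this assay, cells in 96-well plates receive the compound at five concentrations for 48 hours. Endpoints are linearly interpolated between the surrounding concentrations. At the TGI there is no net growth.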
Tests used:
Assay in all cases: NCI-60 cell line screen, 48 h
MDA-MB-435 = system: MDA-MB-435
U251 CNS = system: U251 CNS
HCT-116 colon = system: HCT-116 colon
OVCAR-3 ovarian = system: OVCAR-3 ovarian
HS 578T breast = system: HS 578T breast
HT29 colon = system: HT29 colon
SR leukemia = system: SR leukemia
SF-295 CNS = system: SF-295 CNS
SK-MEL-28 melanoma = system: SK-MEL-28 melanoma
HOP-92 NSCLC = system: HOP-92 NSCLC
DU-145 prostate = system: DU-145 prostate
ACHN renal = system: ACHN renal
NCI-H460 lung = system: NCI-H460 lung
T-47D breast = system: T-47D breast
NCI/ADR-RES ovarian = system: NCI/ADR-RES ovarian
RXF 393 renal = system: RXF 393 renal
OVCAR-4 ovarian = system: OVCAR-4 ovarian
HCC-2998 colon = system: HCC-2998 colon
SNB-19 CNS = system: SNB-19 CNS
OVCAR-8 ovarian = system: OVCAR-8 ovarian
NCI-H522 lung = system: NCI-H522 lung
TK-10 renal = system: TK-10 renal
OVCAR-5 ovarian = system: OVCAR-5 ovarian
UO-31 renal = system: UO-31 renal
KM12 colon = system: KM12 colon
MDA-MB-231 breast = system: MDA-MB-231 breast
PC-3 prostate = system: PC-3 prostate
LOX IMVI melanoma = system: LOX IMVI melanoma
SK-OV-3 ovarian = system: SK-OV-3 ovarian
IGROV1 ovarian = system: IGROV1 ovarian
EKVX NSCLC = system: EKVX NSCLC
SK-MEL-2 melanoma = system: SK-MEL-2 melanoma
SF-539 CNS = system: SF-539 CNS
HL-60(TB) leukemia = system: HL-60(TB) leukemia
NCI-H23 lung = system: NCI-H23 lung
K-562 leukemia = system: K-562 leukemia
MCF7 breast = system: MCF7 breast
SK-MEL-5 melanoma = system: SK-MEL-5 melanoma
SNB-75 CNS = system: SNB-75 CNS
COLO 205 colon = system: COLO 205 colon
CCRF-CEM leukemia = system: CCRF-CEM leukemia
CAKI-1 renal = system: CAKI-1 renal
RPMI-8226 leukemia = system: RPMI-8226 leukemia
HCT-15 colon = system: HCT-15 colon
MOLT-4 leukemia = system: MOLT-4 leukemia
M14 melanoma = system: M14 melanoma
UACC-257 melanoma = system: UACC-257 melanoma
A549 NSCLC = system: A549 NSCLC
SF-268 CNS = system: SF-268 CNS
SN12C renal = system: SN12C renal
SW-620 colon = system: SW-620 colon
MDA-N = system: MDA-N
BT-549 breast = system: BT-549 breast
UACC-62 melanoma = system: UACC-62 melanoma
HOP-62 NSCLC = system: HOP-62 NSCLC
MALME-3M melanoma = system: MALME-3M melanoma
NCI-H226 lung = system: NCI-H226 lung
786-0 renal = system: 786-0 renal

Measured: TGI

CCOC(=O)C1(C(F)(F)F)N=C(CC)OC(N2CCOCC2)=N1 (stereo unspecified)
not listed: HOP-62 NSCLC | MALME-3M melanoma | NCI-H226 lung | 786-0 renal
> 100 µM: all other assays above

CCOC(=O)C(=O)C(=O)NN(C)C1=NCCN1
not listed: CAKI-1 renal
> 100 µM: all other assays above
